Measurements reported in article PMC4992173, “Divergent synthesis and identification of the cellular targets of deoxyelephantopins” (Nature Communications, 2016).

How the values were obtained:
[1] = target: T1, Glyoxylate reductase/hydroxypyruvate reductase (GRHPR) (Homo sapiens, UniProt Q9UBQ7); experiment: SILAC competitive profiling with probe 24c in MCF7 lysates: GRHPR; assay type: binding; conditions: protein GRHPR, 1 h, then 10 µM 24c
T1 construct: endogenous in cells; host or cells: MCF7
Source text: In our efforts to determine the direct molecular targets of deoxyelephantopin we first performed a gel-based competitive in situ proteomic profiling assay[41] […] While the greater conformational flexibility of probe 24c could potentially lead to more promiscuous target engagement relatively to deoxyelephantopin, it was favoured based on the fact that an alkyne moiety appended to the rigid scaffold of deoxyelephantopin may hinder some of its interactions. MCF7 cells were pretreated with various concentrations of deoxyelephantopin for 4 h, harvested, lysed and the lysates were treated with the fluorogenic probe 24c-Cy3 (10 μM; Supplementary Fig. 10). […] Furthermore, cells were pretreated with 20 μM concentration of deoxyelephantopin or 24c and the proteomic profiles were compared (Fig. 6b, Supplementary Fig. 11). Multiple bands were detected that were equally competed by both DEP and 24c, thus again confirming that 24c can be used as an acceptable clickable analogue of deoxyelephantopin in pulldown assays. Having established the optimal labelling conditions by SDS–PAGE, we next carried out a mass spectrometry-based competitive profiling assay[42] coupled with the method of stable isotope labelling of amino acids in culture (SILAC)[43]. […]
visualization were performed as described above. Images were quantified with ImageJ and kinetics values were calculated using GraphPad Prism (V6.03). […]

[2] = test system: PPARγ; conditions: cited from earlier work
[3] = test system: several human cancer cell lines; conditions: cited from earlier work

T1 sequence (Q9UBQ7 whole entry): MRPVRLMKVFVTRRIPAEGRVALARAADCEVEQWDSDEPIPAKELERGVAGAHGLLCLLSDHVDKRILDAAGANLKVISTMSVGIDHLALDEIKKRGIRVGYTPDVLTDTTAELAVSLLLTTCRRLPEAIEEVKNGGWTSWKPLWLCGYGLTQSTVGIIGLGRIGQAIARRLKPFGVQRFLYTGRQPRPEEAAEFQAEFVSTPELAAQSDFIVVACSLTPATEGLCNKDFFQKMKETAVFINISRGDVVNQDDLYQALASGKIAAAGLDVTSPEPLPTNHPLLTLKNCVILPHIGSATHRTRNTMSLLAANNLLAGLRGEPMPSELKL

## C=C(C)C(=O)O[C@H]1CC2=C[C@@H](C/C(C)=C/[C@H]3OC(=O)C(=C)[C@H]13)OC2=O [deoxyelephantopin]
[1]
  SILAC ratio 20 µM Deoxyelephantopin/DMSO with 24c: 0.23
[2]
  action on PPARγ (SPR): partial agonist
[3]
  cytotoxic doses: 0.5 to 2 µg/mL
